The text below walks through data of ChEMBL document CHEMBL3525904, “Effect of structural variation on aldehyde oxidase-catalyzed oxidation of zoniporide” (Drug Metab Dispos, 2012).

SMILES strings stand for the structures.

What all share (type): ADME, subcellular
Series [1] has as its target T1, Aldehyde oxidase (Homo sapiens, UniProt Q06278).
T1 sequence (Q06278 whole entry): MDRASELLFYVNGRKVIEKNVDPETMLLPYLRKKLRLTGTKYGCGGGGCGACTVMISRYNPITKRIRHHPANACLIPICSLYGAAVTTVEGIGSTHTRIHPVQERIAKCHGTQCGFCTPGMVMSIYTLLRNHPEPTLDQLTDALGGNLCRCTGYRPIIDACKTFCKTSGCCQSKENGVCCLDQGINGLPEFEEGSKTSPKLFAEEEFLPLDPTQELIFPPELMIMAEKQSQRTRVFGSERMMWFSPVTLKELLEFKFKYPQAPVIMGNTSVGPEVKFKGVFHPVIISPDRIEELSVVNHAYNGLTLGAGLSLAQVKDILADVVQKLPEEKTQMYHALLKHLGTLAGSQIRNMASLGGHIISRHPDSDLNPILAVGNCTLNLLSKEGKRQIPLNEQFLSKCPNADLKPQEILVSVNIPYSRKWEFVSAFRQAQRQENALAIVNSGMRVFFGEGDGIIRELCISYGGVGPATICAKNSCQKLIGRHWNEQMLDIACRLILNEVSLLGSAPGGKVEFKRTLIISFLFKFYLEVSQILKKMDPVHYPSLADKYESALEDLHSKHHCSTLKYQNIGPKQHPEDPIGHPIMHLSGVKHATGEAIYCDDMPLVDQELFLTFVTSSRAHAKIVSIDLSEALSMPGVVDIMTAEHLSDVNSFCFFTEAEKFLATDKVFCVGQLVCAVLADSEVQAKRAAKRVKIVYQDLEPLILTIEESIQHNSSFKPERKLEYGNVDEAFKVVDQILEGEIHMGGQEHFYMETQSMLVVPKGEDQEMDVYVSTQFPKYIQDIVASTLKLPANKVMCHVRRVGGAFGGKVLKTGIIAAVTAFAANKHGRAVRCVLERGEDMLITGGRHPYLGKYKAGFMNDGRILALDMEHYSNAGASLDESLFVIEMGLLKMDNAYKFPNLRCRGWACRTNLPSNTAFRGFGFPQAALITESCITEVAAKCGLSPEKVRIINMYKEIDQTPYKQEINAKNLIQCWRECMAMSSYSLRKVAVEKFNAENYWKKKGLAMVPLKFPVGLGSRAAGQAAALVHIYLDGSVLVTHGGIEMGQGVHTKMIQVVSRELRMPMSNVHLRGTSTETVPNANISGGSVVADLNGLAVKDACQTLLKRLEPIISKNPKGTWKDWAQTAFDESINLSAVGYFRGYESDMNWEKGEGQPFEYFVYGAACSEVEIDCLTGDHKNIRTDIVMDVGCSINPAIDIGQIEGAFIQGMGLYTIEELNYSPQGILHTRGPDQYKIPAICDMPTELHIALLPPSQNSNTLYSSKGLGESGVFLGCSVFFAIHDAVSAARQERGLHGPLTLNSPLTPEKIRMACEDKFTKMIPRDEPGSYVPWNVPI
Briefly: Drug level in human liver S9 fraction assessed as aldehyde oxidase-mediated compound formation treated with 10 uM N-carbamimidoyl-5-cyclopropyl-1-(6-hydroxyquinolin-5-yl)-1H-pyrazole-4-carboxamide by spectrometry.

In series [2] the target is T1, Aldehyde oxidase. Briefly: Drug level in human liver S9 fraction assessed as aldehyde oxidase-mediated compound formation treated with 10 uM N-carbamimidoyl-5-cyclopropyl-1-(quinolin-4-yl)-1H-pyrazole-4-carboxamide by spectrometry.
Series [3] has as its target T1, Aldehyde oxidase. Briefly: Drug level in human liver S9 fraction assessed as aldehyde oxidase-mediated compound formation treated with 10 uM N-carbamimidoyl-5-cyclopropyl-1-(6-methylquinolin-5-yl)-1H-pyrazole-4-carboxamide by spectrometry.
Series [4] has as its target T1, Aldehyde oxidase. The series is described as follows: Drug level in human liver S9 fraction assessed as aldehyde oxidase-mediated compound formation treated with 10 uM N-carbamimidoyl-5-cyclopropyl-1-(quinolin-6-yl)-1H-pyrazole-4-carboxamide by spectrometry.
The target in series [5] is T1, Aldehyde oxidase. The series is described as follows: Drug level in human liver S9 fraction assessed as aldehyde oxidase-mediated compound formation treated with 10 uM 1-(1H-benzo[d]imidazol-4-yl)-N-carbamimidoyl-5-cyclopropyl-1H-pyrazole-4-carboxamide by spectrometry.
The target of series [6] is T1, Aldehyde oxidase. Briefly: Drug level in human liver S9 fraction assessed as aldehyde oxidase-mediated compound formation treated with 10 uM N-carbamimidoyl-5-cyclopropyl-1-(6-methoxyquinolin-5-yl)-1H-pyrazole-4-carboxamide by spectrometry.

As to `N=C(N)NC(=O)c1cnn(-c2c(O)ccc3[nH]c(=O)ccc23)c1C1CC1`, the Drug metabolism result on Aldehyde oxidase [1] is on record as “metabolite_detected”.

Consider `N=C(N)NC(=O)c1cnn(-c2cc(=O)[nH]c3ccccc23)c1C1CC1`, for which the Drug metabolism result on Aldehyde oxidase [2] is listed as “metabolite_detected”.

On to `Cc1ccc2[nH]c(=O)ccc2c1-n1ncc(C(=O)NC(=N)N)c1C1CC1`, for which the Drug metabolism result at Aldehyde oxidase [3] is “metabolite_detected”.

Turning to `N=C(N)NC(=O)c1cnn(-c2ccc3[nH]c(=O)ccc3c2)c1C1CC1`, the Drug metabolism result on Aldehyde oxidase [4] is recorded as “metabolite_detected”.

Consider `N=C(N)NC(=O)c1cnn(-c2cccc3[nH]c(=O)[nH]c23)c1C1CC1`, for which, on Aldehyde oxidase [5], the Drug metabolism entry is given as “metabolite_detected”.

Turning to `COc1ccc2[nH]c(=O)ccc2c1-n1ncc(C(=O)NC(=N)N)c1C1CC1`, the Drug metabolism result on Aldehyde oxidase [6] is recorded as “metabolite_detected”.
